Literature values as cited in US20110047631A1, “HEAT SHOCK PROTEIN DEFICIENCIES AS MODEL SYSTEMS FOR BRAIN PATHOLOGY AND CANCER” (Medical College of Georgia Research Institute Inc., priority 2009, published 2011).

Legend:
[1] = system: mouse models of Amyotrophic Lateral Sclerosis (ALS)
[2] = 8 mg/kg per mice daily dose

SMILES: CC1=C(O)C(=O)C=C2C1=CC=C1[C@@]2(C)CC[C@@]2(C)[C@@H]3C[C@](C)(C(=O)O)CC[C@]3(C)CC[C@]12C [Celasterol]
- expression of Hsps (Hsps): enhance the expression of Hsps
- neuronal cell death and life span [1]: block neuronal cell death and extend the life of these mice
- toxicity [2]: no toxicity
